According to patent US7674789B2, “Compounds” (Glaxo Group Limited, priority 2005, dated 2010):

Tested on: influx of neutrophils to the lung in LPS-challenged rats
Test: Rat LPS neutrophilia model
Assay type: in vivo
Conditions: intratracheal compound 15 min-24 hours before LPS aerosol (100 ug/ml, 15 min), lavage 4 hours later, in at least one of the range of conditions tested
Description: Rat LPS Neutrophilia Model
The effect of compounds on the influx of neutrophils to the lung in LPS-challenged rats is evaluated as follows. The test compound is suspended in one of the following solutions: 0.5% tween 80/PBS, 0.5% tween 80/saline, 10% EtOH/saline (with pH adjusted to 2.0, or 8.0 with HCl, or unadjusted), Saline @ pH 2.0, 6.5 or 8.0, 0.5% Tragacanth, 1% DMSO/20% Encapsin/Saline, or acidified 5% Tragacanth. The suspension process may be aided by the use of a glass homogenizer. For intratracheal administration, the animals are anesthetized with inhaled isoflurane and placed in a supine position, the trachea is intubated with a steel gavage needle (1.5 inch, 22 gauge, small ball) or a Penn-Century Microsprayer Aerosolizer (model IA-1B) and 200 ul of dosing solution is delivered. The animals are visually monitored during the recovery process, which typically occurs within two minutes.
Rats treated with compound or vehicle (15 min-24 hours pretreatment) are exposed to an LPS aerosol (100 ug/ml) for 15 min. Four hours later the rats are euthanized with pentobarbital (100 mg/kg, i.p.) and the airways are lavaged with 5 washes of 5 ml of phosphate buffered saline. The harvested cells are stained (Diffquick) and counted to determine total and differential cell data. In a typical study, macrophages represent 40-70% of the total cells, and polymorphonuclear cells 30-60% of the total cells. Inhibition of neutrophil levels relative to no compound controls is calculated based on the differential counts.
The assay has varying conditions, such as concentration, pretreat time, form of the compound (crystalline, amorphous, salts, micronised), and a wet or dry application of the compound. The data is obtained as % inhibition using a particular concentration and pretreat time.

SMILES | inhibition of neutrophilia (neutrophil influx to the lung)
CCCNC(=O)c1ccc(C)c(-c2nc(N(C)CCCN(C)C)nc3c2CNC(=O)N3c2c(F)cccc2F)c1 [Example 53, 3-{8-(2,6-difluorophenyl)-2-[[3-(dimethylamino)propyl](methyl)amino]-7-oxo-5,6,7,8-tetrahydropyrimido[4,5-d]pyrimidin-4-yl}-4-methyl-N-propylbenzamide] | statistically nonsignificant inhibition of neutrophilia
Cc1ccc(C(=O)Nc2ccc(C)c(-c3nc(NC4CC(C)(C)NC(C)(C)C4)nc4c3CNC(=O)N4c3c(F)cccc3F)c2)cc1F [23(e), N-(3-{8-(2,6-difluorophenyl)-7-oxo-2-[(2,2,6,6-tetramethyl-4-piperidinyl)amino]-5,6,7,8-tetrahydropyrimido[4,5-d]pyrimidin-4-yl}-4-methylphenyl)-3-fluoro-4-methylbenzamide] | statistically nonsignificant inhibition of neutrophilia
Cc1ccc(C(=O)Nc2nccs2)cc1-c1nc(NCCN(C)C)nc2c1CNC(=O)N2c1c(F)cccc1F [118(c), 3-(8-(2,6-difluorophenyl)-2-{[2-(dimethylamino)ethyl]amino}-7-oxo-5,6,7,8-tetrahydropyrimido[4,5-d]pyrimidin-4-yl)-4-methyl-N-1,3-thiazol-2-ylbenzamide] | statistically significant inhibition of neutrophilia
Cc1ccc(C(=O)Nc2nccs2)cc1-c1nc(NCCCN(C)C)nc2c1CNC(=O)N2c1c(F)cccc1F [Example 119, 3-(8-(2,6-difluorophenyl)-2-{[3-(dimethylamino)propyl]amino}-7-oxo-5,6,7,8-tetrahydropyrimido[4,5-d]pyrimidin-4-yl)-4-methyl-N-1,3-thiazol-2-ylbenzamide] | statistically significant inhibition of neutrophilia
Cc1ccc(C(=O)NC(C)C)cc1-c1nc(N(C)CCCN(C)C)nc2c1CNC(=O)N2c1c(F)cccc1F [34(d), 3-{8-(2,6-difluorophenyl)-2-[[3-(dimethylamino)propyl](methyl)amino]-7-oxo-5,6,7,8-tetrahydropyrimido[4,5-d]pyrimidin-4-yl}-4-methyl-N-(1-methylethyl)benzamide] | statistically nonsignificant inhibition of neutrophilia
Cc1c(F)cc(C(=O)Nc2ccccc2)cc1-c1nc(NCCN(C)C)nc2c1CNC(=O)N2c1c(F)cccc1F [Example 112, 3-(8-(2,6-difluorophenyl)-2-{[2-(dimethylamino)ethyl]amino}-7-oxo-5,6,7,8-tetrahydropyrimido[4,5-d]pyrimidin-4-yl)-5-fluoro-4-methyl-N-phenylbenzamide] | statistically significant inhibition of neutrophilia
CCN(CC)CCCNc1nc(-c2cc(C(=O)Nc3nccs3)ccc2C)c2c(n1)N(c1c(F)cccc1F)C(=O)NC2 [Example 120, 3-[2-{[3-(diethylamino)propyl]amino}-8-(2,6-difluorophenyl)-7-oxo-5,6,7,8-tetrahydropyrimido[4,5-d]pyrimidin-4-yl]-4-methyl-N-1,3-thiazol-2-ylbenzamide] | statistically significant inhibition of neutrophilia
CN(C)CCNc1nc(-c2cccc(C(=O)Nc3ccc(F)cc3)c2)c2c(n1)N(c1c(F)cccc1F)C(=O)NC2 [Example 93, 3-(8-(2,6-difluorophenyl)-2-{[2-(dimethylamino)ethyl]amino}-7-oxo-5,6,7,8-tetrahydropyrimido[4,5-d]pyrimidin-4-yl)-N-(4-fluorophenyl)benzamide] | statistically nonsignificant inhibition of neutrophilia
Cc1ccc(C(=O)NC(C)C)cc1-c1nc(N(C)CCN(C)C)nc2c1CNC(=O)N2c1c(F)cccc1F [Example 36, 3-{8-(2,6-difluorophenyl)-2-[[2-(dimethylamino)ethyl](methyl)amino]-7-oxo-5,6,7,8-tetrahydropyrimido[4,5-d]pyrimidin-4-yl}-4-methyl-N-(1-methylethyl)benzamide] | statistically significant inhibition of neutrophilia
Cc1ccc(C(=O)Nc2ccc(C)c(-c3nc(N(C)C)nc4c3CNC(=O)N4c3c(F)cccc3F)c2)cc1F [Example 28, N-{3-[8-(2,6-difluorophenyl)-2-(dimethylamino)-7-oxo-5,6,7,8-tetrahydropyrimido[4,5-d]pyrimidin-4-yl]-4-methylphenyl}-3-fluoro-4-methylbenzamide] | statistically nonsignificant inhibition of neutrophilia
CNC(=O)c1ccc(C)c(-c2nc(N3CCC(N4CCCCC4)CC3)nc3c2CNC(=O)N3c2c(F)cccc2F)c1 [Example 176, 3-[2-(1,4′-bipiperidin-1′-yl)-8-(2,6-difluorophenyl)-7-oxo-5,6,7,8-tetrahydropyrimido[4,5-d]pyrimidin-4-yl]-N,4-dimethylbenzamide] | statistically nonsignificant inhibition of neutrophilia
CN(C)CCNc1nc(-c2cccc(C(=O)Nc3nccs3)c2)c2c(n1)N(c1c(F)cccc1F)C(=O)NC2 [Example 92, 3-(8-(2,6-difluorophenyl)-2-{[2-(dimethylamino)ethyl]amino}-7-oxo-5,6,7,8-tetrahydropyrimido[4,5-d]pyrimidin-4-yl)-N-1,3-thiazol-2-ylbenzamide] | statistically significant inhibition of neutrophilia
CSc1nc(-c2cc(NC(=O)c3ccsc3)ccc2C)c2c(n1)N(c1c(F)cccc1F)C(=O)NC2 [7(c), N-{3-[8-(2,6-Difluorophenyl)-2-(methylthio)-7-oxo-5,6,7,8-tetrahydropyrimido[4,5-d]pyrimidin-4-yl]-4-methylphenyl}-3-thiophenecarboxamide] | inactive
CNC(=O)c1ccc(C)c(-c2nc(NCCCN(C)C)nc3c2CNC(=O)N3c2c(F)cccc2F)c1 [Example 166, 3-(8-(2,6-difluorophenyl)-2-{[3-(dimethylamino)propyl]amino}-7-oxo-5,6,7,8-tetrahydropyrimido[4,5-d]pyrimidin-4-yl)-N,4-dimethylbenzamide] | statistically nonsignificant inhibition of neutrophilia
Cc1ccc(C(=O)NC(C)C)cc1-c1nc(N2CCC(N3CCN(C)CC3)CC2)nc2c1CNC(=O)N2c1c(F)cccc1F [Example 72, 3-{8-(2,6-difluorophenyl)-2-[4-(4-methyl-1-piperazinyl)-1-piperidinyl]-7-oxo-5,6,7,8-tetrahydropyrimido[4,5-d]pyrimidin-4-yl}-4-methyl-N-(1-methylethyl)benzamide] | statistically significant inhibition of neutrophilia
Cc1ccc(C(=O)NC(C)C)cc1-c1nc(N2CCC(N3CCC(C)CC3)CC2)nc2c1CNC(=O)N2c1c(F)cccc1F [Example 70, 3-[8-(2,6-difluorophenyl)-2-(4-methyl-1,4′-bipiperidin-1′-yl)-7-oxo-5,6,7,8-tetrahydropyrimido[4,5-d]pyrimidin-4-yl]-4-methyl-N-(1-methylethyl)benzamide] | statistically significant inhibition of neutrophilia
